According to patent US7179908B2, “Water-and organic-soluble cucurbituril derivatives, their preparation methods, their separation methods and uses” (Pohang University of Science and Technology Foundation, priority 2001, dated 2007):
Converted amounts (≈) assume the structure as drawn.

Assays:
[1] = Binding constant measured using a microcalorimeter (VP-ITC); conditions: 0.05 M tris buffered solution pH 7.2
Description: A 5.5 mM CB*[5] solution and 110 mM-KCl solution were prepared with 0.05 M tris buffered solution having a pH of 7.2. Then, the binding constant of CB*[5] was measured using a microcalorimeter (VP-ITC, manufactured by MicroCal). As a result, CB*[5] forms a 1:2 complex with potassium ions with a primary binding constant of 2.8×10^4 M^−1 and a secondary binding constant of 1.5×10^2 M^−1. CB*[5] can selectively bind with alkali metal ions, as well as with ammonium ions. The result confirms that cucurbituril derivatives can be used as ion sensors.

[2] = Solubilities of the cucurbituril derivatives in water, methanol, dimethylsulfoxide and acetonitrile; assay type: physicochemical

For O=C1N2CN3C(=O)N4CN5C(=O)N6CN7C(=O)N8CN9C(=O)N%10CN1C1%11CCCCC21N1CN2C(=O)N(CN%12C(=O)N(CN%13C(=O)N(CN%14C(=O)N(CN%11C1=O)C%101CCCCC9%141)C81CCCCC7%131)C61CCCCC5%121)C41CCCCC321 (stereo not shown) [CB*[5]], the “complex stoichiometry with potassium ions” value [1] was 1:2 complex, the primary binding constant ([1]; potassium ions (KCl)) was 28000 M⁻¹ and the secondary binding constant ([1]; potassium ions (KCl)) was 150 M⁻¹. For the same molecule, the Solubility ([2]; Acetonitrile) was 0.67 mM (≈ 0.738 mg/mL), the Solubility ([2]; Dimethylsulfoxide) was 18 mM (≈ 19.8 mg/mL) and the Solubility ([2]; Methanol) was 31 mM (≈ 34.1 mg/mL). It also gave a Solubility ([2]; Water) of 260 mM (≈ 286 mg/mL).
